The text below walks through data of US20260373233A1, “ISLET AMYLOID POLYPEPTIDE ISOFORMS AND PEPTIDES AND METHODS OF USE” (The United States of America, as represented by the …, priority 2022, published 2026).

Assay [1] deals with T1, IAPP37 (Homo sapiens, UniProt P10997).
T1 construct: ThT fibrillation assay
T1 sequence (P10997 34-70): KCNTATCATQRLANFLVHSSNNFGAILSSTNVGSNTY
Put plainly: Thioflavin T (ThT) IAPP37 fibrillation assay. It counts as biochemical. The settings on record: 37 °C; for IAPP aggregation dynamics (AUC of ThT fluorescence) with inhibitor, % of IAPP37 aggregation: linear range of 90-160 min, 50 μM IAPP37 with 50 μM inhibitory peptide, p=0.003. How it is done: (§1) Thioflavin T in vitro assay for IAPP and Ab amyloid formation: Thioflavin T (ThT) was from Millipore-Sigma (Cat #T3516, Rockville, MD). […] Black 96 well microplates (Chimney Well) were from Greiner Bio-One (Frickenhausen, Germany). C-terminal amidated IAPP25 and DNSP11 peptides were synthesized by GeneMed Synthesis Inc (San Antonio, TX). […] The final concentration […] 1% DMSO and 25 μM ThT in Component A buffer (AnaSpec Manual of SensoLyte Thioflavin T Aggregation Kit, Cat #AS-72214).
Statistical data analysis: GraphPad Prism v9 software was used for statistical analysis of RT-qPCR and SRM data and MetaboAnalyst v5.0 (metaboanalyst.ca/) was used for partial least squares-discriminant analysis (PLS-DA). P<0.05 was considered significant and data were represented as means±SEM. The normalized expression values of IAPP isoforms in TaqMan fold changes and ddPCR IAPP/GAPDH droplets, ELISA, and SRM quantitative values were analyzed with unpaired student t-test, Pearson correlation coefficient matrix. All statistical procedures for SRM biomarker discovery were carried out by using GraphPad Prism v9 software and MetaboAnalyst 5.0. Biomarker accuracies were calculated by area under the receiver operating characteristic curve (AUROC). For ThT amyloid dye assay, area under a curve (AUC) was calculated using the trapezoidal rule and the data were analyzed using one-way ANOVA with Tukey's multiple comparison correction. The ratio of means (±SEM) was calculated by propagation of error formula.
(§2) FIG. 10A is a representative experiment of three replicates showing IAPP37 aggregation dynamics with lag time of 90 min and inhibition by IAPP25 (derived from IAPP-γ) and DNSP11. […] ThT binding fluorescent intensity (F.I.) was transformed to area under curve (AUC) using the trapezoidal rule and the inhibitions were analyzed by one-way ANOVA with Tukey's multi-test correction.

The nature of assay [2]: ThT amyloid reporter binding assay of peptide alone. How it is done:
as §1, §2

Assay [3] concerns the target T2, Aβ42 (Homo sapiens, UniProt P05067).
T2 construct: ThT fibrillation assay
Put plainly: Thioflavin T (ThT) Aβ42 fibrillation assay. The assay is classed as biochemical. The settings on record: linear range of 70-120 min; 50 μM Aβ42 with 50 μM inhibitory peptide; 37 °C; p<0.0001.
Experimental: Thioflavin T in vitro assay for IAPP and Ab amyloid formation: Thioflavin T (ThT) was from Millipore-Sigma (Cat #T3516, Rockville, MD). […] Black 96 well microplates (Chimney Well) were from Greiner Bio-One (Frickenhausen, Germany). […] The final concentration the monomeric peptides was 1% DMSO and 25 μM ThT in Component A buffer (AnaSpec Manual of SensoLyte Thioflavin T Aggregation Kit, Cat #AS-72214).
P<0.05 was considered significant and data were represented as means±SEM. […] For ThT amyloid dye assay, area under a curve (AUC) was calculated using the trapezoidal rule and the data were analyzed using one-way ANOVA with Tukey's multiple comparison correction. The ratio of means (±SEM) was calculated by propagation of error formula.

The test system of assay [4] is dopaminergic neurons. The note with it: animal models of Parkinson's disease; amidated DNSP11; cited from earlier work.

Peptide text beside a SMILES is read from it.

T2 sequence (P05067 672-713): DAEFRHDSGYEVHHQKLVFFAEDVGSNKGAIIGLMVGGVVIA

For `CC(C)C[C@H](NC(=O)[C@H](CO)NC(=O)[C@H](CCCNC(=N)N)NC(=O)[C@H](CC(=O)O)NC(=O)[C@H](CCC(=O)O)NC(=O)[C@H](C)NC(=O)[C@@H]1CCCN1C(=O)[C@H](C)NC(=O)[C@H](CCC(=O)O)NC(=O)[C@@H]1CCCN1C(=O)[C@@H]1CCCN1)C(N)=O` [DNSP11] (H-PPEAPAEDRSL-NH2), the “IAPP aggregation dynamics (AUC of ThT fluorescence) with inhibitor, % of IAPP37 aggregation” value in assay [1] was 24.1%. For the same compound, the “binding to ThT amyloid reporter” value in assay [2] is reported as “did not bind”. The “Aβ aggregation dynamics (AUC of ThT fluorescence) with inhibitor, % of Aβ42 aggregation” value in assay [3] is listed as 62.9%. The “protection of dopaminergic neurons” value in assay [4] was “protective to dopaminergic neurons”.
As to `CC[C@H](C)[C@H](NC(=O)[C@H](CCC(N)=O)NC(=O)[C@H](Cc1c[nH]c2ccccc12)NC(=O)[C@H](C)NC(=O)[C@H](CO)NC(=O)[C@H](CCCNC(=N)N)NC(=O)[C@H](CCC(N)=O)NC(=O)[C@@H](NC(=O)[C@H](Cc1c[nH]cn1)NC(=O)[C@@H]1CCCN1C(=O)[C@H](CC(C)C)NC(=O)[C@@H](NC(=O)[C@H](C)NC(=O)[C@H](CC(N)=O)NC(=O)CNC(=O)[C@H](CO)NC(=O)[C@H](CCCCN)NC(=O)[C@H](Cc1c[nH]c2ccccc12)NC(=O)[C@H](CCCNC(=N)N)NC(=O)[C@@H](NC(=O)[C@@H](NC(=O)[C@H](CCCCN)NC(=O)[C@H](CO)NC(=O)[C@@H](N)CCCCN)C(C)C)[C@@H](C)CC)[C@@H](C)O)C(C)C)C(=O)N[C@@H](Cc1ccccc1)C(N)=O` [IAPP25] (H-KSKVIRWKSGNATLPHVQRSAWQIF-NH2), the “IAPP aggregation dynamics (AUC of ThT fluorescence) with inhibitor, % of IAPP37 aggregation” value in assay [1] was 25.0%. Besides, in assay [2], the “binding to ThT amyloid reporter” value is recorded as “did not bind”. In addition, in assay [3], the “Aβ aggregation dynamics (AUC of ThT fluorescence) with inhibitor, % of Aβ42 aggregation” value is recorded as 50.6%.
As to “KCNTATCATQRLANFLVHSSNNFGAILSSTNVGSNTY [IAPP37, mature human IAPP, 37-AA peptide (AnaSpec Cat #AS-60254-1), reference compound]”, the “lag time of IAPP37 aggregation” value in assay [1] (IAPP37, representative experiment of three replicates) came to 90 min.
